In US9302998B2, “Aryl triazole compounds with antitumoural activity” (SIGMA-TAU RESEARCH SWITZERLAND S.A., priority 2010, dated 2016):

Assays:
MiaPaCa2 pancreas = test: Sulphorodamine B test at single concentration, MiaPaCa2; assay type: cell-based; conditions: Homo sapiens, MIA PaCa-2; 500 nM, 72 h
Protocol: (§1) The antiproliferative activity of novel Hsp90 inhibitors was also evaluated on various cancerous cell lines by means of the sulphorodamine B test (i.e., NCI-H460 non-small cell lung carcinoma, A431 epidermoid, A2780 ovarian, MDA-MB436 triple-negative breast, U87MG glioblastoma, A498 renal, HCT116 colon, MeWo melanoma, MiaPaCa2 pancreas, HeLa cervix uteri, NB4 promyelocytic leukemia). NCI-H460, A431, MDA-MB436, A2780, A498, HeLa, NB4 tumour cells were grown in RPMI 1640 containing 10% fetal bovine serum (i.e., FBS from GIBCO), L-glutamine, and 50 μg/ml gentamycin sulfate.
MiaPaCa2 cells were cultured in DMEM medium containing 10% FBS, L-glutamine, and 50 μg/ml gentamycin sulfate.
(§2) All cell lines were maintained in a 37° C. incubator with saturated humidity and an atmosphere containing 95% air and 5% CO2, and were sub-cultured every 2-3 days. Tumour cells were seeded in 96-well tissue culture plates at approximately 10% confluence and were allowed to attach and recover for 24 h.
(§3) Varying concentrations of the drugs were then added to each well to calculate their IC50 value (the concentration which inhibits the 50% of cell survival). The plates were incubated at 37° C. for 72 h. At the end of the treatment, the plates were washed by remotion of the supernatant and addition of PBS 3 times. 200 μl PBS and 50 μl of cold 80% trichloroacetic acid (TCA) were added. The plates were incubated on ice for at least 1 h. TCA was removed, the plates were washed 3 times by immersion in distilled-water and dried on paper and at 40° C. for […]. Then 200 μl of 0.4% sulphorodamine B in 1% acetic acid were added. The plates were incubated at room temperature for 30 min. Sulphorodamine B was removed, the plates were washed by immersion in 1% acetic acid for 3 times, then they were dried on paper and at 40° C. for 5 min. Then, 200 μl Tris 10 mM were added, the plates were kept under stirring for 20 min. The cell survival was determined as optical density by a Multiskan […] at 540 nm. The amount of cells killed was calculated as the percentage decrease in sulphorodamine B binding compared with control cultures.
(§4) The other cell lines were screened against one single concentration of the various inhibitors (i.e., 500 nM), all experiments being made in octuplicate, following the protocol described at example 35. Since NB4 cell line was grown in suspension, a further step of centrifugation (i.e., 1600 g for 10 min) was added after the 72 hour incubation period.

Hsp90 = target: T1, Hsp90 (Homo sapiens, UniProt P07900); test: Fluorescence Polarization (FP) binding, GM-BODIPY displacement from Hsp90; conditions: GM-BODIPY tracer, 4° C. for 4 hours
T1 construct: purchased Stressgen SPP-776
Protocol: GM-BODIPY (PerkinElmer, CUSN60342000MG) was previously dissolved in DMSO to obtain 10 mM stock solutions and kept at −20° C. until use.
Hsp90 (Stressgen, SPP-776), was previously dissolved in assay buffer (HFB) to form 2.2 μM stock solutions and kept at −80° C. until use.
The compounds were previously dissolved in DMSO to obtain stock solutions and kept at −20° C. The day of experiment, the compounds were prepared by serial dilutions in assay buffer (HFB) containing 20 mM HEPES (K) pH 7.3, 50 mM KCl, 5 mM MgCl2, 20 mM Na2MoO4 and 0.01% NP40. Before each use, 0.1 mg/ml Bovine Gamma globulin and 2 mM DTT were freshly added.
Fluorescence Polarization (FP) was performed in Opti-Plate™-96F well plates (Perkin Elmer, Zaventem, Belgium) using a plate reader (Wallac Envision 2101 multilabel reader, Perkin Elmer, Zaventem, Belgium). To evaluate the binding affinity of the molecules, 50 μl of the GM-BODIPY solution (100 nM) were added to 125 nM of Hsp90 in the presence of 5 μl of the test compounds at increasing concentrations. The plate was mixed on a shaker at 4° C. for 4 hours, and the FP values in mP (millipolarization units) were recorded. The IC50 values were calculated as the inhibitor concentration where 50% of the tracer is displaced; each data point is the result of the average of triplicate wells, and was determined from a plot using nonlinear least-squares analysis. Curve fitting was performed using
Prism GraphPad software program (GraphPad software, Inc., San Diego, Calif.).

A431 epidermoid = test: Sulphorodamine B test at single concentration, A431; assay type: cell-based; conditions: Homo sapiens, A-431; 500 nM, 72 h
Protocol: as §1, §2, §3, §4

[1] = tested on: NB4 promyelocytic leukemia; test: Sulphorodamine B test at single concentration, NB4; assay type: cell-based; conditions: 500 nM, 72 h, suspension cells
Protocol: as §1, §2, §3, §4

HCT116 colon = test: Sulphorodamine B test at single concentration, HCT116; assay type: cell-based; conditions: Homo sapiens, HCT-116; 500 nM, 72 h
Protocol: as §1
HCT116 cells were cultured in McCoy's medium containing 10% FBS, L-glutamine, and 50 μg/ml gentamycin sulfate.
as §2, §3, §4

U87MG glioblastoma = test: Sulphorodamine B test at single concentration, U87MG; assay type: cell-based; conditions: Homo sapiens, U-87 MG; 500 nM, 72 h
Protocol: as §1
(§5) MeWo and U87-MG cells were cultured in Eagle's Minimum Essential Medium (i.e., EMEM) containing 10% FBS, L-glutamine, 1 mM sodium pyruvate, 0.1 mM non-essential amino acids, 1.5 g/l sodium bicarbonate, and 50 μg/ml gentamycin sulphate.
as §2, §3, §4

[2] = tested on: MDA-MB436 triple-negative breast; test: Sulphorodamine B test at single concentration, MDA-MB436; assay type: cell-based; conditions: Homo sapiens, MDA-MB-436; 500 nM, 72 h
Protocol: as §1, §2, §3, §4

HeLa cervix uteri = test: Sulphorodamine B test at single concentration, HeLa; assay type: cell-based; conditions: Homo sapiens, 500 nM, 72 h
Protocol: as §1, §2, §3, §4

[3] = tested on: NCI-H460 non-small cell lung carcinoma; test: Cytotoxicity assay, sulphorodamine B test, NCI-H460; assay type: cell-based; conditions: Homo sapiens, NCI-H460; 72 h, sulphorodamine B
Protocol: as §1, §2, §3

MeWo melanoma = test: Sulphorodamine B test at single concentration, MeWo; assay type: cell-based; conditions: Homo sapiens, 500 nM, 72 h
Protocol: as §1, §5, §2, §3, §4

A2780 ovarian = test: Sulphorodamine B test at single concentration, A2780; assay type: cell-based; conditions: Homo sapiens, 500 nM, 72 h
Protocol: as §1, §2, §3, §4

A498 renal = test: Sulphorodamine B test at single concentration, A498; assay type: cell-based; conditions: Homo sapiens, 500 nM, 72 h
Protocol: as §1, §2, §3, §4

SMILES | inhibition at 0.5 µM (MiaPaCa2 pancreas) [%] | IC50 (Hsp90) [nM] | inhibition at 0.5 µM (A431 epidermoid) [%] | inhibition at 0.5 µM [1] [%] | inhibition at 0.5 µM (HCT116 colon) [%] | inhibition at 0.5 µM (U87MG glioblastoma) [%] | inhibition at 0.5 µM [2] [%] | inhibition at 0.5 µM (HeLa cervix uteri) [%] | IC50 [3] [nM] | inhibition at 0.5 µM (MeWo melanoma) [%] | inhibition at 0.5 µM (A2780 ovarian) [%] | inhibition at 0.5 µM (A498 renal) [%]
CCNC(=O)c1nnn(-c2cc(C(C)C)c(O)cc2O)c1-c1ccc(CNCCN(CC)CC)cc1 [Example 17, 5-{4-[(2-diethylamino-ethylamino)-methyl]-phenyl}-1-(2,4-dihydroxy-5-isopropyl-phenyl)-1H-[1,2,3]triazole-4-carboxylic acid ethylamide] | ≥ 50 | < 50 | ≥ 50 | ≥ 50 | 30 to 50 | ≥ 50 | ≥ 50 | 30 to 50 | 100 to 500 | ≥ 50 | ≥ 50 | 30 to 50
CCNC(=O)c1nnn(-c2cc(C(C)C)c(O)cc2O)c1-c1ccc(CN2CCCC2)cc1 [Example 21, 1-(2,4-dihydroxy-5-isopropyl-phenyl)-5-(4-pyrrolidin-1-ylmethyl-phenyl)-1H-[1,2,3]triazole-4-carboxylic acid ethylamide] | ≥ 50 | < 50 | ≥ 50 | ≥ 50 | ≥ 50 | ≥ 50 | ≥ 50 | ≥ 50 |  | ≥ 50 | ≥ 50 | ≥ 50
CC(C)c1cc(-n2nnc(C(=O)NC3CCCCC3)c2-c2ccc(CN3CCOCC3)cc2)c(O)cc1O [Example 29, 1-(2,4-dihydroxy-5-isopropyl-phenyl)-5-(4-morpholin-4-ylmethyl-phenyl)-1H-[1,2,3]triazole-4-carboxylic acid cyclohexylamide] | ≥ 50 | 50 to 100 | ≥ 50 | ≥ 50 | ≥ 50 | ≥ 50 | ≥ 50 | ≥ 50 | < 50 | ≥ 50 | ≥ 50 | ≥ 50
CC(C)c1cc(-n2nncc2-c2ccc(CN3CCCC(O)C3)cc2)c(O)cc1O (stereo not shown) [Example 2, 4-{5-[4-(3-hydroxy-piperidin-1-ylmethyl)-phenyl]-[1,2,3]triazol-1-yl}-6-isopropyl-benzene-1,3-diol] | ≥ 50 | < 50 | ≥ 50 | ≥ 50 | ≥ 50 | 30 to 50 | ≥ 50 | ≥ 50 | < 50 | ≥ 50 | ≥ 50 | 30 to 50
CC(C)c1cc(-n2nnc(C(=O)NC3CCCC3)c2-c2ccc(CN3CCOCC3)cc2)c(O)cc1O [Example 28, 1-(2,4-dihydroxy-5-isopropyl-phenyl)-5-(4-morpholin-4-ylmethyl-phenyl)-1H-[1,2,3]triazole-4-carboxylic acid cyclopentylamide] | ≥ 50 | < 50 | ≥ 50 | ≥ 50 | ≥ 50 | ≥ 50 | ≥ 50 | ≥ 50 | < 50 | ≥ 50 | ≥ 50 | ≥ 50
CCNC(=O)c1nnn(-c2cc(C(C)C)c(O)cc2O)c1-c1ccc(CN2CCCC(O)C2)cc1 (racemic) [Example 6, (R,S)-1-(2,4-dihydroxy-5-isopropyl-phenyl)-5-[4-(3-hydroxy-piperidin-1-ylmethyl)-phenyl]-1H-[1,2,3]triazole-4-carboxylic acid ethylamide] | ≥ 50 | < 50 | ≥ 50 | ≥ 50 | ≥ 50 | ≥ 50 | ≥ 50 | ≥ 50 | 50 to 100 | ≥ 50 | ≥ 50 | ≥ 50
CCNC(=O)c1nnn(-c2cc(C(C)C)c(O)cc2O)c1-c1ccc(CN2CCN(C)CC2)cc1 [Example 11, 1-(2,4-dihydroxy-5-isopropyl-phenyl)-5-[4-(4-methyl-piperazin-1-ylmethyl)-phenyl]-1H-[1,2,3]triazole-4-carboxylic acid ethylamide] | ≥ 50 | < 50 | ≥ 50 | ≥ 50 | ≥ 50 | ≥ 50 | ≥ 50 | ≥ 50 | < 50 | ≥ 50 | ≥ 50 | ≥ 50
CCNC(=O)c1nnn(-c2cc(C(C)C)c(O)cc2O)c1-c1ccc(CN(CC)CCO)cc1 [Example 7, 1-(2,4-dihydroxy-5-isopropyl-phenyl)-5-(4-{[ethyl-(2-hydroxy-ethyl)-amino]-methyl}-phenyl)-1H-[1,2,3]triazole-4-carboxylic acid ethylamide] | ≥ 50 | < 50 | ≥ 50 | ≥ 50 | ≥ 50 | ≥ 50 | ≥ 50 | ≥ 50 | 50 to 100 | ≥ 50 | ≥ 50 | ≥ 50
CCNC(=O)c1nnn(-c2cc(C(C)C)c(O)cc2O)c1-c1ccc(Cn2ccnc2)cc1 [Example 22, 1-(2,4-dihydroxy-5-isopropyl-phenyl)-5-(4-imidazol-1-ylmethyl-phenyl)-1H-[1,2,3]triazole-4-carboxylic acid ethylamide] | ≥ 50 | < 50 | ≥ 50 | ≥ 50 | ≥ 50 | ≥ 50 | ≥ 50 | ≥ 50 |  | ≥ 50 | ≥ 50 | ≥ 50
